Measurements as given in ChEMBL document CHEMBL1135054, “Biphenylsulfonamide endothelin receptor antagonists. Part 3: structure-activity relationship of 4'-heterocyclic biphenylsulfonamides” (Bioorg Med Chem Lett, 2002).

How the values were obtained:
[1] = molecular target: T1, Endothelin receptor type B (Homo sapiens, UniProt P24530); assay: Binding affinity to CHO cells stably expressing human Endothelin B receptor.; format: cell-based
T1 sequence (P24530 whole entry): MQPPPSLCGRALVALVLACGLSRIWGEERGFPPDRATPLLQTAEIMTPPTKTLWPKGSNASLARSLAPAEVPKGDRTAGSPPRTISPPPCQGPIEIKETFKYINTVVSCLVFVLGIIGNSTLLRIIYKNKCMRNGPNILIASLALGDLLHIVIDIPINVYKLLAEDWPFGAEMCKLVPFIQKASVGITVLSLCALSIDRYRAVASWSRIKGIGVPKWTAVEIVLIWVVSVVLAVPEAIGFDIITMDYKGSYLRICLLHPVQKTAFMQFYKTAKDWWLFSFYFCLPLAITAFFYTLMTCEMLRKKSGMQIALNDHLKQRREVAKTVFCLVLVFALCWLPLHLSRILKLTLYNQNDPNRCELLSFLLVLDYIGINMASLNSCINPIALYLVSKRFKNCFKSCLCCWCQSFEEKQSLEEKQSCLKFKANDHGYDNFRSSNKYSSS

Endothelin-1 receptor = molecular target: T2, Endothelin-1 receptor (Homo sapiens, UniProt P25101); assay: biochemical
T2 sequence (P25101 whole entry): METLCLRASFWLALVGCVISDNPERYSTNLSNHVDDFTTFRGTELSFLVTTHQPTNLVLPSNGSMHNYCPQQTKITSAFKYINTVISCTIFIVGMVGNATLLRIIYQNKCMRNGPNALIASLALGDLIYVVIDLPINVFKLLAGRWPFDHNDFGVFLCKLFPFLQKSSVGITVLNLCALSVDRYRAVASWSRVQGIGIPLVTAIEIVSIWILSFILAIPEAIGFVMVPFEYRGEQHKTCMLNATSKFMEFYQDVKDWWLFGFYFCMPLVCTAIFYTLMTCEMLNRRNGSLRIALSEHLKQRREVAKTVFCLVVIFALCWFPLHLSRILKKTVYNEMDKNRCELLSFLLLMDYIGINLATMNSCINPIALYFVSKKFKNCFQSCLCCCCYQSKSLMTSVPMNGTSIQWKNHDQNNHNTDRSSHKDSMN
Description: Binding affinity to CHO cells stably expressing human Endothelin A receptor.

Row | Compound | Ki [1] [µM] | Ki (Endothelin-1 receptor) [µM]
1 | Cc1noc(NS(=O)(=O)c2ccccc2-c2ccc(-c3ncc[nH]3)cc2)c1C | 150 | 0.044
2 | Cc1noc(NS(=O)(=O)c2ccccc2-c2ccc(-c3nccn3C)cc2)c1C | 120 | 0.019
3 | Cc1noc(NS(=O)(=O)c2ccccc2-c2ccc(-c3cncnc3)cc2)c1C | 170 | 0.3
4 | Cc1noc(NS(=O)(=O)c2ccccc2-c2ccc(-c3nnn[nH]3)cc2)c1C | > 200 | 3.8
5 | Cc1noc(NS(=O)(=O)c2ccccc2-c2ccc(-c3nccs3)cc2)c1C | 52 | 0.0056
6 | Cc1noc(NS(=O)(=O)c2ccccc2-c2ccc(-c3ccncn3)cc2)c1C | 130 | 0.025
7 | Cc1noc(NS(=O)(=O)c2ccccc2-c2ccc(-c3nnco3)cc2)c1C | 75 | 0.004

Now those with a lower Ki [1], led by results:

Row | Ki [1] [µM] | Ki (Endothelin-1 receptor) [µM] | Compound
8 | 48 | 0.22 | COc1cc(OC)nc(-c2ccc(-c3ccccc3S(=O)(=O)Nc3onc(C)c3C)cc2)n1
9 | 39 | 0.27 | Cc1noc(NS(=O)(=O)c2ccccc2-c2ccc(-c3ccno3)cc2)c1C
10 | 30.8 | 0.037 | Cc1[n-][o+]c(NS(=O)(=O)c2ccccc2-c2ccc(-c3cccc[n+]3[O-])cc2)c1C
11 | 22 | 0.0062 | Cc1noc(NS(=O)(=O)c2ccccc2-c2ccc(-c3cnccn3)cc2)c1C
12 | 20 | 0.038 | Cc1noc(NS(=O)(=O)c2ccccc2-c2ccc(-c3ccccc3)cc2)c1C
13 | 20 | 0.0033 | Cc1noc(NS(=O)(=O)c2ccccc2-c2ccc(-c3cccnc3)cc2)c1C
14 | 16 | 0.0009 | Cc1noc(NS(=O)(=O)c2ccccc2-c2ccc(-c3ncccn3)cc2)c1C
15 | 9.4 | 0.0067 | Cc1noc(NS(=O)(=O)c2ccccc2-c2ccc(-n3cccn3)cc2)c1C
16 | 6.3 | 0.0023 | Cc1noc(NS(=O)(=O)c2ccccc2-c2ccc(-c3ccccn3)cc2)c1C
